For 10 compounds, IC50 and Ki results are on record in article PMC11909056, “Investigation of cholinesterase and α-glucosidase enzyme activities, and molecular docking and dft studies for 1,2-disubstituted cyclopentane derivatives with phenyl and benzyl units” (Molecular Diversity, 2024).

Test [1] has as its target T1, Butyrylcholinesterase (BChE) (Equus caballus, UniProt P81908).
T1 construct: Butyrylcholinesterase from equine serum (CAS No.: 9001–08-5); from tissue; host or cells: equine serum
Nature of the test: biochemical. Here is the method: (§1) The Ellman approach was employed to examine the impact of synthetic chemicals on the ability to inhibit AChE and BChE activity. AChI/BChI and DTNB were used to quantify the AChE/BChE activity. […] For different concentrations of the sample solution, 100 μL of buffer (1 M, Tris/HCl, pH 8.0) were used to dissolve 10 μL of the sample solution. […] The incubation was followed by the addition of DTNB (50 μL, 0.5 mM). Lastly, to start the reaction, 50 μL of bChI/aChI were added. […] Then, the activities of AChE/BChE were evaluated.

In test [2] the target is Acetylcholinesterase (AChE) (Electrophorus electricus, UniProt O42275). As to the kind of experiment: biochemical. How it is done: as §1
The target of test [3] is α-Glucosidase (Saccharomyces cerevisiae, UniProt P53341). Nature of the test: α-glucosidase inhibition with p-NPG substrate (Tao et al. method). Type of test: biochemical. How it is done:
Samples were made by dissolving 20 mg in 20 mL (EtOH:H2O). It was initially combined in 5–200 μL of sample with 700 μL of phosphate buffer (0.15 u/mL, pH 7.4) and 20 μL of enzyme solution [31, 32]. After a pre-incubation period of 10 min at 35 °C, 50 μL of p-NPG was added as the reaction began. Additionally, following the pre-incubation, 50 μL of p-NPG in phosphate buffer (5 mM, pH = 7.4) was added, and the incubation was repeated at 35 °C. A curve was fitted to the data to determine the IC50 and Ki values. […] (pH: 7.4).

As usually defined, the IC50 is the midpoint of a concentration-inhibition curve. Broadly, the Ki is the equilibrium dissociation constant of an inhibitor or competing ligand from its target.

T1 sequence (P81908 whole entry): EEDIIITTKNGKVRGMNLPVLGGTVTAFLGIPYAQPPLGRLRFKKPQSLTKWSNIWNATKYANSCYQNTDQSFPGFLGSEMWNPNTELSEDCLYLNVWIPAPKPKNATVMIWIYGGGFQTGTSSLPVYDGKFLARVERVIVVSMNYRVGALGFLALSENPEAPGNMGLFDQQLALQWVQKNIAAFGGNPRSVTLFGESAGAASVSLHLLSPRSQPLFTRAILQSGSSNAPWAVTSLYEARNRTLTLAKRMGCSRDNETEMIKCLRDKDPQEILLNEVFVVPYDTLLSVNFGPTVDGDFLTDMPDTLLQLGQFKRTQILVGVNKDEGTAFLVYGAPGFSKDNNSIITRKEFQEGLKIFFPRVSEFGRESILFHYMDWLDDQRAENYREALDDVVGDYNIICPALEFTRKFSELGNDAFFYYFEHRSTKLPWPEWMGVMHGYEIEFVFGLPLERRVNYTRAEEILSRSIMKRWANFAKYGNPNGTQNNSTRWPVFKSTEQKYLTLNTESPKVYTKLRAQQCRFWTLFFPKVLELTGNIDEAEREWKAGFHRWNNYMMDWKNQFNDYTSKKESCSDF
Sequence of α-Glucosidase (P53341 whole entry): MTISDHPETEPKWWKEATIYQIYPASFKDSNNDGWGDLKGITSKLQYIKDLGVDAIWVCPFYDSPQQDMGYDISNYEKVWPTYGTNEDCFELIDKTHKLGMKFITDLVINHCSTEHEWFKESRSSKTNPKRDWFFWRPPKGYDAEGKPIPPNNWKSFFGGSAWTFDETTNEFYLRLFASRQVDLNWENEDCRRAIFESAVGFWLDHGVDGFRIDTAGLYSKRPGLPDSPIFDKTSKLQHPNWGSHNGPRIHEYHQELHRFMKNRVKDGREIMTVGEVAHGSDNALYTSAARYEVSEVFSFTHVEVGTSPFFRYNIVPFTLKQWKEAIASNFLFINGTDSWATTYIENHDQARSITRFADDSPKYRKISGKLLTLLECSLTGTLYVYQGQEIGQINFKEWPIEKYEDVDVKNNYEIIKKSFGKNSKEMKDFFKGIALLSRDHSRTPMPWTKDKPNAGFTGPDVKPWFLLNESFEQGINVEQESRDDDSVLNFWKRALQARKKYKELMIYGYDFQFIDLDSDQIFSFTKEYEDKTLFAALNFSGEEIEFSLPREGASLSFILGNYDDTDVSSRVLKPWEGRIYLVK
Sequence of Acetylcholinesterase (AChE) (O42275 24-633): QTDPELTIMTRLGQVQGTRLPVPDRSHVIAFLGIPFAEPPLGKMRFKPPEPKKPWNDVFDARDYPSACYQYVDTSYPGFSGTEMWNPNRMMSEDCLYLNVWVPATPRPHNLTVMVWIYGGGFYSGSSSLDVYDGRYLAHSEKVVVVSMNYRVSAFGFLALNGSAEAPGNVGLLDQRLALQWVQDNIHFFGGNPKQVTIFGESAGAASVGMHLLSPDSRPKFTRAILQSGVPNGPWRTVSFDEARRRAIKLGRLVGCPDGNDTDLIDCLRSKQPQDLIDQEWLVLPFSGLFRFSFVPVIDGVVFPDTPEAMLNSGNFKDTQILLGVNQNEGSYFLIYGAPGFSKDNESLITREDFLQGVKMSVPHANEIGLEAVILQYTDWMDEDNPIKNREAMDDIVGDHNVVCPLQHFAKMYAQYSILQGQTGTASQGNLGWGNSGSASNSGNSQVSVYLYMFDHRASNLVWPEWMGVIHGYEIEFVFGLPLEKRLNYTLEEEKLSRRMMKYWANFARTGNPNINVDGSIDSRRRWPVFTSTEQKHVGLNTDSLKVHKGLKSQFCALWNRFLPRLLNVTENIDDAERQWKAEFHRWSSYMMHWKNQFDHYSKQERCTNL

For the compound `COc1ccc(C(=O)C2=C(c3ccc(OC)c(OC)c3OC)CCC2)c(OC)c1OC` [Compound 4, (2,3,4-trimethoxyphenyl)(2-(2,3,4-trimethoxyphenyl)cyclopent-1-en-1-yl)methanone], the IC50 in test [1] came out at 414 nM; in test [2], 102 nM; in test [3] it was 41.6 nM. Further, the Ki stood at 403 ± 32.3 nM in test [1], 99.7 ± 11.4 nM in test [2] and 48.9 ± 7.33 nM in test [3].

Regarding `COc1ccc(C(=O)C2CCC=C2c2ccc(OC)c(OC)c2OC)c(OC)c1OC` (stereo not drawn) [Compound 5], the IC50 was found to be 187 nM in test [1], 92.2 nM in test [2] and 39.6 nM in test [3]. Also, the Ki came to 176 ± 23.8 nM in test [1], 87.9 ± 7.27 nM in test [2] and 44.7 ± 6.61 nM in test [3].

As to `COc1ccc(C(=O)CCCCC(=O)c2ccc(OC)c(OC)c2OC)c(OC)c1OC` [Compound 6], the IC50 in test [1] turned out to be 225 nM; in test [2] it was 189 nM; in test [3] it was 27.2 nM. Further, the Ki in test [1] is 212 ± 13.7 nM; in test [2], 177 ± 22.6 nM; in test [3], 29.1 ± 4.25 nM.

Take `COc1ccc(C(=O)CCCCC(=O)c2ccc(OC)c(OC)c2OC)c(O)c1OC` [Compound 7]: the IC50 worked out at 646 nM in test [1], 644 nM in test [2] and 43.2 nM in test [3]. In addition, the values for the Ki in test [1], in test [2] and in test [3] were 622 ± 35.1 nM, 632 ± 18.9 nM and 46.5 ± 6.34 nM, respectively.

As to `COc1ccc(C(=O)CCCCC(=O)c2ccc(OC)c(OC)c2O)c(O)c1OC` [Compound 8], the IC50 in test [1] was 222 nM; in test [2], 174 nM; in test [3], 36.4 nM. For the same compound, the Ki in test [1] is 209 ± 14.7 nM; in test [2] it was 171 ± 14.1 nM; in test [3], 38.5 ± 4.25 nM.

On to `COc1c(Br)cc(C(=O)C(Br)CCC(Br)C(=O)c2cc(Br)c(OC)c(OC)c2O)c(O)c1OC` (stereo not drawn) [Compound 9], for which the figures for the IC50 in test [1], in test [2] and in test [3] were 450 nM, 49.8 nM and 21.1 nM, respectively. In addition, the results for the Ki in test [1], in test [2] and in test [3] were 428 ± 27.4 nM, 45.5 ± 7.35 nM and 25.5 ± 4.46 nM, respectively.

For `COc1ccc(C2=C(/C(=N/NC(C)=O)c3ccc(OC)c(OC)c3OC)CCC2)c(OC)c1OC` [Compound 10, (Z)-N'-((2,3,4-Trimethoxyphenyl)(2-(2,3,4-trimethoxyphenyl)cyclopent-1-en-1-yl)methylene)acetohydrazide], the results for the IC50 in test [1], in test [2] and in test [3] were 135 nM, 205 nM and 28.4 nM, respectively. The Ki in test [1] was 131 ± 14.5 nM; in test [2], 196 ± 13.7 nM; in test [3] it was 31.2 ± 5.54 nM.

`COc1ccc(CC2CCCC2c2ccc(OC)c(OC)c2OC)c(OC)c1OC` (stereo not drawn) [Compound 11, 1,2,3-Trimethoxy-4-(2-(2,3,4-trimethoxybenzyl)cyclopentyl)benzene]: the IC50 was 155 nM in test [1], 170 nM in test [2] and 33.4 nM in test [3]. The Ki in test [1] was determined as 145 ± 15.5 nM; in test [2] it was 151 ± 13.3 nM; in test [3], 38.1 ± 5.48 nM.

As for `COc1c(Br)c(Br)c(CC2CCCC2c2c(Br)c(Br)c(OC)c(OC)c2OC)c(OC)c1OC` (stereo not drawn) [Compound 12, 1,2-Dibromo-3-(2-(2,3-dibromo-4,5,6-trimethoxybenzyl)cyclopentyl)-4,5,6-trimethoxybenzene], the IC50 turned out to be 92.7 nM in test [1], 65.5 nM in test [2] and 23.9 nM in test [3]. The Ki is 84.3 ± 9.92 nM in test [1], 61.1 ± 5.26 nM in test [2] and 27.4 ± 5.17 nM in test [3].

Turning to `COc1c(Br)cc(C2CCCC2Cc2c(Br)c(Br)c(OC)c(OC)c2OC)c(OC)c1OC` (stereo not drawn) [Compound 13, 1,2-Dibromo-3-((2-(5-bromo-2,3,4-trimethoxyphenyl)cyclopentyl)methyl)-4,5,6-trimethoxybenzene], the IC50 in test [1] turned out to be 217 nM; in test [2], 124 nM; in test [3], 31.6 nM. The Ki turned out to be 205 ± 17.4 nM in test [1], 108 ± 5.14 nM in test [2] and 35.6 ± 3.95 nM in test [3].
